{"source": "patent US20060247318A1", "about": "“Small molecule inhibitors of STAT3 and the uses thereof” (priority 2005, published 2006)", "key": {"Stat3 [1]": {"tested_on": "Stat3", "experiment": "Co-immunoprecipitation of Stat3-Flag and Stat3-HA (dimerization) in MDA-MB-435s cells", "assay_type": "cell-based", "details": "20 μM, 24 h", "excerpt": "(A) Untransfected and untreated MDA-MB-435s cells. (B and E) Cells cotransfected with pCMV-Stat3-Flag and pCMV-Stat3-HA plasmids were immunostained with anti-flag IgG-Rhodamine. (B) Untreated cells and (E) STA-21 treated cells. (C and F) Transfected cells were immunostained with anti-HA IgG-FITC. (C) Untreated cells and (F) STA-21 treated cells. (D and G) Transfected cells were co-immunostained with both anti-HA IgG-FITC and anti-flag IgG-Rhodamine. […] (H) MDA-MB-435s cells were cotransfected with pCMV-Stat3-Flag and pCMV-Stat3-HA plasmids and were exposed to 20 μM STA-21 for 24 h, then cell lysates were immunoprecipitated with anti-HA or anti-Flag antibodies. Immunoprecipitates were resolved on 10% SDS-PAGE and then immunoblotted with anti-HA, anti-Flag or anti-Stat3 antibodies.\nThe effect of STA-21 on Stat3 in vivo dimerization in breast cancer MDA-MB-435s cells was also investigated. After the exposure to 20 μM STA-21 for 24 h, the cells were harvested and the lysates from the cells expressing Stat3-Flag and Stat3-HA tagged proteins were immunoprecipitated with an anti-Flag or anti-HA antibody, respectively. The immunoprecipitated reaction mixtures were resolved on a 10% SDS-PAGE and immunoblotted with an anti-HA, anti-Flag, or anti-Stat3 antibody, respectively."}, "AKT (P-AKT)": {"tested_on": "AKT (P-AKT)", "experiment": "Western blot of MDA-MB-468 cell lysates", "assay_type": "cell-based", "details": "MDA-MB-468 cells, 48 h", "procedure": "(§1) FIGS. 3A-3B show the inhibition of Stat3 DNA binding activity and Stat3-regulated anti-apoptotic factors by STA-21. (A) MDA-MB-435s cell nuclear extract was incubated with 30 μM STA-21 for 30 min at room temperature, and then incubated with r-^32P-ATP labeled consensus binding sequence for 20 min at room temperature. The reaction mixtures were resolved on 8% polyacrylamide gel. (B) The lysates from MDA-MB-468 cells treated with the indicated concentrations of STA-21 for 48 h were resolved on 10% SDS-PAGE, then immunoblotted with antibodies as indicated.\n(§2) It was next examined whether or not STA-21 could reduce Stat3 DNA binding activity using electrophoretic mobility shift assays as reported (Turkson et al., J. Biol. Chem. 276:45443 (2001)). In MDA-MB-435s breast carcinoma cells with constitutive Stat3 signaling, high Stat3 DNA binding activity was observed (FIG. 3A)."}, "ERK (P-ERK)": {"tested_on": "ERK (P-ERK)", "experiment": "Western blot of MDA-MB-468 cell lysates", "assay_type": "cell-based", "details": "MDA-MB-468 cells, 48 h", "procedure": "as §1, §2"}, "Bcl-XL": {"tested_on": "Bcl-XL", "experiment": "Western blot of MDA-MB-468 cell lysates", "assay_type": "cell-based", "details": "MDA-MB-468 cells, 20 or 30 μM, 48 h", "procedure": "as §1, §2"}, "[2]": {"tested_on": "breast cancer cells that contain constitutively active Stat3", "experiment": "Cell viability assays using MTT", "assay_type": "cell-based", "excerpt": "(§3) Since STA-21 inhibited Stat3-dependent luciferase and DNA binding activities, it was next examined whether STA-21 inhibited the growth and survival of breast cancer cells with constitutive Stat3 signaling. […] The Stat3 status of the cell lines was confirmed by measurement of phosphorylated Stat3 (FIG. 4A)."}, "Stat3 [3]": {"tested_on": "Stat3", "experiment": "Stat3-dependent luciferase reporter (pLucTKS3) in Caov-3 cloned cells", "assay_type": "cell-based", "details": "pLucTKS3, 20 μM, 48 h", "procedure": "(§4) FIGS. 2A-2B show the inhibition of Stat3 dependent luciferase activity in cancer cells by STA-21. (A) The clone from Caov-3 carcinoma cells stably transfected with pLucTKS3 Stat3-dependent luciferase reporter was used for initial Sat3 small molecule inhibitor screening. The cloned cells were treated with 20 μM of STA-21 as well as other small molecule compounds for 48 h, then the cells were harvested for luciferase activity analysis. (B) The clones from MDA-MB-435s cells stably transfected with pLucTKS3 Stat3-dependent luciferase reporter or SV40 luciferase reporter were treated with 20 μM of STA-21 for 48 h. Luciferase activity was measured using a Promega luciferase kit according to the manufacturer's instructions. The results were based on the averages and standard deviations from three separate experiments.\n(§5) The 100 selected inhibitors were evaluated using a Stat3 luciferase reporter system. Both MDA-MB-435s breast carcinoma cells and Caov-3 ovarian carcinoma cells express constitutively activated Stat3 (Song et al., Int. J. Oncol. 24:1017 (2004); Song et al., Biochem. Biophys. Res. Commun. 314:143 (2004)). […] The selected clones were exposed to Stat3 inhibitors at a final concentration of 20 μM for 48 h and luciferase activity was measured using a Promega Luciferase kit (Madison, Wis.)."}, "Stat1": {"target": "T1, Stat1 (Homo sapiens, UniProt P42224)", "T1 construct": "MDA-MB-435s cell nuclear extract was incubated with 30 μM STA-21 for 30 min at room temperature; endogenous in cells; host or cells: MDA-MB-435s nuclear extract", "T1 sequence (P42224 1-750)": "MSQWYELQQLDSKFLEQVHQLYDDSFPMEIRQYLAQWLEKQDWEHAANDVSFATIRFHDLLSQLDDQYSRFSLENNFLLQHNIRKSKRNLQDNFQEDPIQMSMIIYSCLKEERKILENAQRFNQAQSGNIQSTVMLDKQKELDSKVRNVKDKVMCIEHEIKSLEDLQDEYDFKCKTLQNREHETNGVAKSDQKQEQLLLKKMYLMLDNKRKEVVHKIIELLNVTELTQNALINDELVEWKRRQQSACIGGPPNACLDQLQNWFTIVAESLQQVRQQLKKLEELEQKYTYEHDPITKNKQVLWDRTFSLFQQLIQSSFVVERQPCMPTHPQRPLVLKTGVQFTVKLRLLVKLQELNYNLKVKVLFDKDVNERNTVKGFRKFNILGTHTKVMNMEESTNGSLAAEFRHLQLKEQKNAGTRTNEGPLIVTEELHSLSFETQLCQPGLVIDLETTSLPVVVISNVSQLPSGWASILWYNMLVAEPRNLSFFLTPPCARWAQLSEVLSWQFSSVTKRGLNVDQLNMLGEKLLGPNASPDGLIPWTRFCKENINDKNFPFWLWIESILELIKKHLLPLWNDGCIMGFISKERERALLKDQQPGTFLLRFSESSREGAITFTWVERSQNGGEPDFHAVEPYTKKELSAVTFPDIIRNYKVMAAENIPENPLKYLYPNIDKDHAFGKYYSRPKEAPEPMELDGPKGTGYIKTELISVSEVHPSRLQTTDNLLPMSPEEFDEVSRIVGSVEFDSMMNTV", "experiment": "Electrophoretic mobility shift assay, MDA-MB-435s cells", "assay_type": "biochemical"}, "Stat5": {"tested_on": "Stat5", "experiment": "Electrophoretic mobility shift assay, MDA-MB-435s cells", "assay_type": "biochemical"}, "Stat3 [4]": {"tested_on": "Stat3", "experiment": "Stat3-dependent luciferase reporter (pLucTKS3) in MDA-MB-435s cloned cells", "assay_type": "cell-based", "details": "pLucTKS3, 20 μM, 48 h", "procedure": "as §4, §5"}, "Stat3 [5]": {"tested_on": "Stat3", "experiment": "Electrophoretic mobility shift assay, MDA-MB-435s nuclear extract", "assay_type": "biochemical", "details": "30 μM, 30 min", "procedure": "as §1, §2"}, "MDA-MB-435s": {"tested_on": "MDA-MB-435s", "experiment": "Sub-G1 flow cytometry (apoptotic cells), survival", "assay_type": "cell-based", "details": "constitutively activated Stat3, 20 μM or 30 μM, 48 h", "procedure": "(§6) (A) The phosphorylation of Stat3 at Y-705 in different cell lines. (B) The cell lines were treated with STA-21 at concentrations as indicated for 48 h, and then cells were harvested and analyzed for the Sub-G1 profile that indicated apoptotic cells on a FACScan Flow Cytometer (Becton Dickinson, San Jose, Calif.). The results were based on the averages and standard deviations from three separate experiments.\nas §3"}, "MDA-MB-468": {"tested_on": "MDA-MB-468", "experiment": "Sub-G1 flow cytometry (apoptotic cells), survival", "assay_type": "cell-based", "details": "MDA-MB-468, constitutively activated Stat3, 20 μM or 30 μM, 48 h", "procedure": "as §6, §3"}, "[6]": {"tested_on": "human skin fibroblasts (HSF)", "experiment": "Sub-G1 flow cytometry (apoptotic cells), survival", "assay_type": "cell-based", "details": "no constitutive Stat3 signaling, 20 μM or 30 μM, 48 h", "procedure": "as §6, §3"}, "MDA-MB-231": {"tested_on": "MDA-MB-231", "experiment": "Sub-G1 flow cytometry (apoptotic cells), survival", "assay_type": "cell-based", "details": "MDA-MB-231, constitutively activated Stat3, 20 μM or 30 μM, 48 h", "procedure": "as §6, §3"}, "MDA-MB-453": {"tested_on": "MDA-MB-453", "experiment": "Sub-G1 flow cytometry (apoptotic cells), survival", "assay_type": "cell-based", "details": "MDA-MB-453, no constitutive Stat3 signaling, 20 μM or 30 μM, 48 h", "procedure": "as §6, §3"}, "MCF7": {"tested_on": "MCF7", "experiment": "Sub-G1 flow cytometry (apoptotic cells), survival", "assay_type": "cell-based", "details": "MCF7, no constitutive Stat3 signaling, 20 μM or 30 μM, 48 h", "procedure": "as §6, §3"}, "SV40 luciferase reporter": {"tested_on": "SV40 luciferase reporter", "experiment": "SV40 luciferase reporter (control lacking Stat3 binding sites) in MDA-MB-435s clones", "assay_type": "cell-based", "details": "reporter without Stat3 DNA binding site, 20 μM, 48 h", "procedure": "as §4, §5"}}, "data": [{"smiles": "C[C@@H]1CC(=O)c2c(ccc3c2C(=O)c2cccc(O)c2C3=O)C1", "note": "[STA-21]", "values": [{"measurement": "Stat3 dimerization between Stat3-Flag and Stat3-HA proteins", "setting": "Stat3 [1]", "result": "abrogated Stat3 dimerization"}, {"measurement": "phosphorylation of AKT (P-AKT)", "setting": "AKT (P-AKT)", "result": "did not affect the phosphorylation"}, {"measurement": "phosphorylation of ERK (P-ERK)", "setting": "ERK (P-ERK)", "result": "did not affect the phosphorylation"}, {"measurement": "downstream anti-apoptotic effector Bcl-XL, Western blot", "setting": "Bcl-XL", "result": "inhibited the downstream anti-apoptotic effector Bcl-XL"}, {"measurement": "growth and survival, cell viability (MTT) combined with sub-G1 data", "setting": "[2]", "result": "strong potential to inhibit the growth and survival"}, {"measurement": "effect on Stat3 induced luciferase activity", "setting": "Stat3 [3]", "result": "remarkable inhibitory effect"}, {"measurement": "Stat1 DNA binding activity", "setting": "Stat1", "result": "not Stat1 and Stat5 DNA binding activity"}, {"measurement": "Stat5 DNA binding activity", "setting": "Stat5", "result": "not Stat1 and Stat5 DNA binding activity"}, {"measurement": "luciferase activity", "setting": "Stat3 [4]", "result": "decreased more than five fold"}, {"measurement": "Stat3 DNA binding activity", "setting": "Stat3 [5]", "result": "inhibited Stat3 DNA binding activity"}, {"measurement": "inhibition of survival (accumulation of cells in sub-G1 phase)", "setting": "MDA-MB-435s", "result": "remarkable inhibitory activity"}, {"measurement": "inhibition of survival (accumulation of cells in sub-G1 phase)", "setting": "MDA-MB-468", "result": "remarkable inhibitory activity"}, {"measurement": "inhibition of survival (sub-G1)", "setting": "[6]", "result": "minimal inhibitory effect"}, {"measurement": "inhibition of survival (accumulation of cells in sub-G1 phase)", "setting": "MDA-MB-231", "result": "remarkable inhibitory activity"}, {"measurement": "inhibition of survival (sub-G1)", "setting": "MDA-MB-453", "result": "minimal inhibitory effect"}, {"measurement": "inhibition of survival (sub-G1)", "setting": "MCF7", "result": "minimal inhibitory effect"}, {"measurement": "luciferase activity, SV40 luciferase reporter", "setting": "SV40 luciferase reporter", "result": "did not affect luciferase activity"}]}]}
